Reference: patent US20070015223A1, “Method of detecting substance to be analyzed” (OLYMPUS CORPORATION, priority 2003, published 2007)

Columns and labels:
[1] = system: genes to be analyzed in rat liver; assay: microarray expression level ratio, control experiment with fixed tyramide reaction time of 5 minutes (Table 3)
[2] = system: genes to be analyzed in rat liver; assay: microarray expression level ratio, sample amount quantified and matched (Example 5, Table 2)
[3] = system: genes to be analyzed in rat liver; assay: microarray expression level ratio, tyramide reaction time adjusted by GAPDH spot signal intensity (Example 7, Table 1)
[4] = Phenobal group rat liver, aRNA 400 ng, Deposition Time 5 min.
[5] = rat liver, aRNA 400 ng vs 100 ng, Deposition Time 5 min. both, corrected using the internal standard gene
[6] = Phenobal group rat liver, aRNA 200 ng, Deposition Time 5 min.
[7] = rat liver, aRNA 200 ng both, Deposition Time 5 min. both
[8] = Phenobal group rat liver, aRNA 400 ng, Deposition Time 2 min.
[9] = rat liver, aRNA 400 ng vs 100 ng, Deposition Time 2 min. vs 7 min.

Q: For `CCC1(c2ccccc2)C(=O)NC(=O)NC1=O` [Phenobal, phenobarbital], which “Raw Data (spot signal intensity), Gene a” value [1, 4] is on record?
A: The value was 1700.

Q: What about the “Raw Data (spot signal intensity), Gene b” value [1, 4] of the same compound?
A: The value was 1875.

Q: And the “Raw Data (spot signal intensity), Gene c” value [1, 4]?
A: Its value is 625.

Q: What about the “Raw Data (spot signal intensity), Gene d” value [1, 4] of the same compound?
A: Its value is 4095.

Q: And the “Raw Data (spot signal intensity), Gene e” value [1, 4]?
A: The value was 1250.

Q: And the “Raw Data (spot signal intensity), Gene f” value [1, 4]?
A: The value was 150.

Q: And the “Raw Data (spot signal intensity), Gene GAPDH” value (shortened to “Raw Data … Gene GAPDH”) ([1]; internal standard gene, Phenobal group rat liver, aRNA 400 ng, Deposition Time 5 min.)?
A: The value was 4095.

Q: What about the “Ratio (Phenobal/Control), Gene GAPDH” value ([1]; internal standard gene, rat liver, aRNA 400 ng vs 100 ng, Deposition Time 5 min. both) of the same compound?
A: The value was 1.0.

Q: And the “Ratio (Phenobal/Control), Gene a” value [1, 5]?
A: Its value is 2.6.

Q: And the “Ratio (Phenobal/Control), Gene b” value [1, 5]?
A: The value was 4.1.

Q: What about the “Ratio (Phenobal/Control), Gene c” value [1, 5] of the same compound?
A: Its value is 0.7.

Q: What about the “Ratio (Phenobal/Control), Gene d” value [1, 5] of the same compound?
A: Its value is 1.6.

Q: What about the “Ratio (Phenobal/Control), Gene e” value [1, 5] of the same compound?
A: Its value is 0.2.

Q: And the “Ratio (Phenobal/Control), Gene f” value [1, 5]?
A: The value was 1.6.

Q: What about the “Raw Data (spot signal intensity), Gene a” value [2, 6] of the same compound?
A: The value was 650.

Q: And the “Raw Data (spot signal intensity), Gene b” value [2, 6]?
A: Its value is 745.

Q: And the “Raw Data (spot signal intensity), Gene c” value [2, 6]?
A: The value was 255.

Q: What about the “Raw Data (spot signal intensity), Gene d” value [2, 6] of the same compound?
A: Its value is 2900.

Q: And the “Raw Data (spot signal intensity), Gene e” value [2, 6]?
A: Its value is 550.

Q: And the “Raw Data (spot signal intensity), Gene f” value [2, 6]?
A: Its value is 65.

Q: What about the “Raw Data … Gene GAPDH” value ([2]; internal standard gene, Phenobal group rat liver, aRNA 200 ng, Deposition Time 5 min.) of the same compound?
A: Its value is 2500.

Q: What about the “Ratio (Phenobal/Control), Gene GAPDH” value ([2]; internal standard gene, rat liver, aRNA 200 ng both, Deposition Time 5 min. both) of the same compound?
A: The value was 1.0.

Q: What about the “Ratio (Phenobal/Control), Gene a” value [2, 7] of the same compound?
A: Its value is 1.8.

Q: What about the “Ratio (Phenobal/Control), Gene b” value [2, 7] of the same compound?
A: The value was 2.6.

Q: What about the “Ratio (Phenobal/Control), Gene c” value [2, 7] of the same compound?
A: Its value is 0.5.

Q: And the “Ratio (Phenobal/Control), Gene d” value [2, 7]?
A: The value was 2.1.

Q: And the “Ratio (Phenobal/Control), Gene e” value [2, 7]?
A: Its value is 0.2.

Q: And the “Ratio (Phenobal/Control), Gene f” value [2, 7]?
A: The value was 1.1.

Q: And the “Raw Data (spot signal intensity), Gene A” value [3, 8]?
A: The value was 680.

Q: And the “Raw Data (spot signal intensity), Gene B” value [3, 8]?
A: Its value is 750.

Q: And the “Raw Data (spot signal intensity), Gene C” value [3, 8]?
A: The value was 250.

Q: What about the “Raw Data (spot signal intensity), Gene D” value [3, 8] of the same compound?
A: The value was 2800.

Q: And the “Raw Data (spot signal intensity), Gene E” value [3, 8]?
A: Its value is 500.

Q: And the “Raw Data (spot signal intensity), Gene F” value [3, 8]?
A: Its value is 60.

Q: What about the “Raw Data … Gene GAPDH” value ([3]; internal standard gene, Phenobal group rat liver, aRNA 400 ng, Deposition Time 2 min.) of the same compound?
A: Its value is 2500.

Q: What about the “Ratio (Phenobal/Control), Gene GAPDH” value ([3]; internal standard gene, rat liver, aRNA 400 ng vs 100 ng, Deposition Time 2 min. vs 7 min.) of the same compound?
A: Its value is 1.0.

Q: And the “Ratio (Phenobal/Control), Gene A” value [3, 9]?
A: Its value is 1.8.

Q: What about the “Ratio (Phenobal/Control), Gene B” value [3, 9] of the same compound?
A: The value was 2.8.

Q: And the “Ratio (Phenobal/Control), Gene C” value [3, 9]?
A: Its value is 0.5.

Q: And the “Ratio (Phenobal/Control), Gene D” value [3, 9]?
A: Its value is 1.9.

Q: And the “Ratio (Phenobal/Control), Gene E” value [3, 9]?
A: Its value is 0.2.

Q: And the “Ratio (Phenobal/Control), Gene F” value [3, 9]?
A: The value was 1.2.
